Results on two compounds are retold here after patent US5476953A, “Biologically active amides containing a bicyclo moiety” (Cornell Research Foundation, Inc., priority 1994, dated 1995).

pIC50: −log10 of the molar value. Values joined by “and” are separate entries in the source; they are usually repeats but may differ in a detail not shown here. Equal values may be shown once.

For orientation: pIC50 means the IC50 on a negative log10 scale, so that one unit is a factor of ten. A high value points to a small IC50.

In assay [1] the test system is HCT116 human colon carcinoma cells. The experiment in a line: In vitro cytotoxicity, crystal violet assay, HCT116 human colon carcinoma. Format: cell-based. The note with it: HCT-116, inhibition of cell proliferation to 50% of untreated control, 72 hours. The procedure: Methanolic extract, obtained on thawing about 1 g frozen sponge by immersion in 20 ml methanol, was assessed for in vitro cytotoxicity in HCT116 human colon carcinoma cells using the crystal violet assay as described in Catino, J. J., et al, Cancer Chemothr. Pharmacol. 15: 240-243, 1985. Particularly, cells were plated at 4000 cells/well in 96 well microtiter plates and 24 hours later samples were added and serial diluted. The cells were incubated at 37° C. for 72 hours. The media was then removed and the cells fixed for 10 minutes with 3.7% formaldehyde in 1 X phosphate buffered saline. The fixing solution was removed and the cells stained with a 0.0075% crystal violet solution for 15 minutes. The cells were then allowed to dry. Rough IC50 values (IC50 being the drug concentration required to inhibit cell proliferation to 50% of that of untreated control cells), expressed as a dilution factor from a 2 mg/ml starting concentration, were determined by visual examination, compared to untreated control wells.
Cytotoxicity was assessed for pure Icadamide A and for pure Icadamide B in an HCT116 human colon carcinoma cell line by the crystal violet assay described previously. […] The IC50 is the drug concentration required to inhibit cell proliferation to 50% of that of untreated control cells.

The next assay relates to P388 mouse leukemia, ip. The experiment in a line: In vivo antitumor activity against ip implanted P388 mouse leukemia. How it is done: For evaluation of antitumor activity against P388 mouse leukemia cells, 1 X 10^6 P 388 leukemia cells were implanted in the intraperitoneal (ip) cavity of (BALB/c X DBA/2)F1 (CDF1) or (C57BL/6 X DBA/2)F1 (BDF1) mice according to the procedure as described in Rose, W. C., et al, Cancer Res. 43: 1504-1510 (1983). Icadamide B was dissolved in DMSO and diluted with saline to the desired concentrations. Injection of Icadamide B was by the ip route beginning on the first day after tumor implantation and consecutively every day for five treatments (q1dX5:1). Increases in lifespan were reflected by the median survival time of treated (T) versus control (C) groups for which a % T/C was calculated. A % T/C of ≥125% was considered an active result.

The subject of assay [2] is M109 mouse lung tumor, ip. Put plainly: In vivo antitumor activity against ip implanted M109 mouse lung tumor. The note with it: for MST % T/C: qd 1-5, ip, active ≥125%. The procedure:
(§1) For evaluation of antitumor activity versus M109 mouse lung tumors, experiments were begun by implanting 0.5 ml of a 2.0% brei ip or 0.1 ml subcutaneously (sc) in CDF1 mice as described in Rose, W. C., Cancer Treat. Rep. 65: 299-312 (1981). Icadamide B was administered either intraperitoneally (ip), intravenously (iv) or subcutaneously (sc) by alzet pump according to dosage amounts and schedule set forth in Table IV below. Results are expressed as % T/C, i.e., percentage of median survival time of treated (T) versus control (C) groups. A % T/C of ≥125% was considered an active result. Results are also expressed in terms of tumor growth inhibition, particularly the median times for tumors in treated (T) mice to reach a 1 g size minus the median times for control (C) mice to reach a 1 g size, denoted T-C. Tumor weights were interchangeable with tumor size on the basis of 1 mm^3 =1 mg. The activity criterion for T-C is approximately equal to 4 days. Depending on the tumor volume doubling time for M109 tumors in control mice, this amount of delay in tumor growth is consistent with about one log of cell kill.

Assay [3] has as its system M109 mouse lung tumor, sc. The experiment in a line: In vivo antitumor activity against sc implanted M109 mouse lung tumor. Conditions: for MST % T/C: active ≥125%; for T-C: time to 1 g tumor, activity criterion approximately 4 days. How it is done:
as §1

For assay [4], the system named is asbestos-induced pulmonary squamous cell carcinoma (ASB), ip. Put plainly: In vivo antitumor activity against ip implanted asbestos-induced pulmonary squamous cell carcinoma (ASB). More on the design: species or system mouse. How it is done:
(§2) For evaluation of antitumor activity versus the asbestos-induced pulmonary squamous cell carcinoma (ASB), CDF1 mice were implanted either intraperitoneally (ip) or subcutaneously (sc) with 0.5 ml or 0.1 ml of a 2% brei, respectively. […] Results were evaluated on the same basis as described above for M109 mouse lung tumors except that the activity criterion for tumor growth inhibition was a T-C of ≥6 days.

Assay [5] deals with asbestos-induced pulmonary squamous cell carcinoma (ASB), sc. The experiment in a line: In vivo antitumor activity against sc implanted asbestos-induced pulmonary squamous cell carcinoma (ASB). More on the design: species or system mouse. The procedure: as §2
[6] abbreviates: a) 0.020 mg/kg/inj, d. 1, 4 & 7, iv.
The mark [7] stands for this setting: b) 0.128 mg/kg/inj, d. 1, 3, 5, 7 & 9, iv.
[8] abbreviates: e) 0.032-0.0537 mg/kg daily, qd 4-10, subcutaneously implanted Alzet pump (scap).

The compound `C=C1CC(OC)(C(O)C(=O)NC2OCOC3C2OC(CC(O)/C=C/C/C=C/C=C/C(=O)NC(CCCNC(=N)N)C(=O)O)C(C)(C)C3OC)OC(C)C1C` (centres unmarked) [Icadamide A] showed a negative logarithm of the IC50 (pIC50) in assay [1] of 7.20.

With `C=C1CC(OC)(C(O)C(=O)NC2OCOC3C2OC(CC(O)/C=C/CCCCCCO)C(C)(C)C3OC)OC(C)C1C` (centres unmarked) [Icadamide B], in assay [1], the negative-log IC50 (pIC50) is 9.77. Further, the “MST % T/C” value in the assay on P388 mouse leukemia, ip (0.016 mg/kg/inj, qd 1-5, ip; two separate experiments a) and b), active ≥125%) was 181% and 143%; in assay [2] (a) 0.016 mg/kg/inj), 163%; in assay [2] (b) 0.008 mg/kg/inj), 150%; in assay [3] (setting [6]), 135%; in assay [3] (setting [7]), 97%; in assay [3] (c) 0.016 mg/kg/inj, qd 4-8, iv), 119%. The “MST % T/C” value in assay [3] (d) 0.013 mg/kg/inj, qd 4-8, ip) was 109%; in assay [3] (setting [8]), 102%; in assay [4] (0.008 mg/kg/inj, qd 4-8, ip, active ≥125%), 121%; in assay [5] (0.032/0.128 mg/kg/inj, qd 4-8, iv, active ≥125%), 129%. The “activity (in words)” value with P388 mouse leukemia, ip (ip implanted P388) is “good activity”; in assay [2] (ip implanted M109), “good activity”; in assay [4] (ip implanted ASB), “poor activity”. Further, the increase in lifespan is 43% and 81% in the assay with P388 mouse leukemia, ip (maximally tolerated dose, ip, two separate experiments); 63% and 50% in assay [2] (maximally tolerated doses, ip). The T-C in assay [3] (setting [6]) is -0.3 days; in assay [3] (setting [7]) it was 0 days; in assay [3] (c) 0.016 mg/kg/inj, qd 4-8, iv) it was 0.3 days; in assay [3] (d) 0.013 mg/kg/inj, qd 4-8, ip), 2.5 days; in assay [3] (setting [8]), 3.3 days; in assay [5] (0.032/0.128 mg/kg/inj, qd 4-8, iv, time to 1 g tumor, activity criterion ≥6 days), 3.0 days and 3 days. In assay [3] (sc implanted M109), the “increase in lifespan (in words)” value is given as “marginal increases in lifespan”. The “tumor growth delay (in words)” value in assay [3] (sc implanted M109) is given as “negligible tumor growth delays”. Moreover, the “distal site activity (in words)” value in assay [5] (sc implanted ASB) is on record as “little distal site activity”.
